The results in this text go back to PMC4858680, “A platinum-based hybrid drug design approach to circumvent acquired resistance to molecular targeted tyrosine kinase inhibitors” (Scientific Reports, 2016).

Read-outs that look alike come from different tables or passages of the source.

In test [1] the test system is H292. As to the kind of experiment: Anticancer activity (cytotoxicity) in NSCLC cell line. It counts as cell-based.
The target in test [2] is FYN (Homo sapiens, UniProt P06241). The following applies: 10 μM.
Sequence of FYN (P06241 whole entry): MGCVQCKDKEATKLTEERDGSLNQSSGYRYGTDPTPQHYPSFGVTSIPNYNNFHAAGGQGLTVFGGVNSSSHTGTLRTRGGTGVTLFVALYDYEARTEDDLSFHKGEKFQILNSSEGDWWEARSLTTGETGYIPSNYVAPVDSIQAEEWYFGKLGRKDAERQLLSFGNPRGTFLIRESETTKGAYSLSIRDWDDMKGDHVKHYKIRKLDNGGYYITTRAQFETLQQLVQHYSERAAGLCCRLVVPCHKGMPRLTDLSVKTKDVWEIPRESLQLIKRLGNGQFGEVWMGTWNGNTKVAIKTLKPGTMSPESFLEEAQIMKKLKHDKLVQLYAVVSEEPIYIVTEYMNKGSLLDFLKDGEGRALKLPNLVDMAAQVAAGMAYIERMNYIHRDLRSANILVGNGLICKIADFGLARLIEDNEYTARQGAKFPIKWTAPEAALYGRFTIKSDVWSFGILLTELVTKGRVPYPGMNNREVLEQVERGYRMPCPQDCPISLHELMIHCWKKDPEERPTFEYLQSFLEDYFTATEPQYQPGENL
Test [3] addresses PDGFRA (Homo sapiens, UniProt P16234). The following applies: 10 μM.
Test [4] concerns the target FGFR2 (Homo sapiens, UniProt P21802). As to conditions: 10 μM.
The target in test [5] is T1, EPHB4 (Homo sapiens, UniProt P54760).
T1 sequence (P54760 16-987): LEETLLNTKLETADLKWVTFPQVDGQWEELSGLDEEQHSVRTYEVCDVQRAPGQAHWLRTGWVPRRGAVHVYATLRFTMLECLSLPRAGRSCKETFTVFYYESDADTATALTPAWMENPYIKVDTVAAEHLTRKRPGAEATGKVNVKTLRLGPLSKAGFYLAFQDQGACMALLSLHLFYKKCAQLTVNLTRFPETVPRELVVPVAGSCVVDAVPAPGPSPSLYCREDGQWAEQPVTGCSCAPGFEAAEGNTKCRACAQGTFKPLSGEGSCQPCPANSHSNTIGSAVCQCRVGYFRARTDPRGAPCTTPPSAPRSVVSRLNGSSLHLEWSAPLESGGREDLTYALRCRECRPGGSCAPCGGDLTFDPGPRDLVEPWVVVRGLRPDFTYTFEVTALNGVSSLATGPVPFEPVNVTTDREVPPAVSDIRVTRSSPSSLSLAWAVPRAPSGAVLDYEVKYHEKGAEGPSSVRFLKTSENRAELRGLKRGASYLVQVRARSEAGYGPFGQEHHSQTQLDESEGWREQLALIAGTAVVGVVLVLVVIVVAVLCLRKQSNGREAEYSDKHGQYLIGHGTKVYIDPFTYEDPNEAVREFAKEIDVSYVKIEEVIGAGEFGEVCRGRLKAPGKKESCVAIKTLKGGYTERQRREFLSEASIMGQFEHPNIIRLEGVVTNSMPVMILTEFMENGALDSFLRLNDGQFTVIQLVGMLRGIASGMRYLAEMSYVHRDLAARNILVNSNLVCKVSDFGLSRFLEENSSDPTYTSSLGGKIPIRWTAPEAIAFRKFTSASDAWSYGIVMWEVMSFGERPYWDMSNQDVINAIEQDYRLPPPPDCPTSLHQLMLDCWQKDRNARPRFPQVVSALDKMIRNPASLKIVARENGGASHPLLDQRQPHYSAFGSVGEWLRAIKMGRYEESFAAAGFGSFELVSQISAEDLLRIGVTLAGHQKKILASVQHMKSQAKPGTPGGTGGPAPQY
The following applies: 10 μM.

For test [6], the target named is T2, YES (Homo sapiens, UniProt P07947).
T2 construct: purchased DiscoveRx Corporation (KINOMEscan service)
T2 sequence (P07947 whole entry): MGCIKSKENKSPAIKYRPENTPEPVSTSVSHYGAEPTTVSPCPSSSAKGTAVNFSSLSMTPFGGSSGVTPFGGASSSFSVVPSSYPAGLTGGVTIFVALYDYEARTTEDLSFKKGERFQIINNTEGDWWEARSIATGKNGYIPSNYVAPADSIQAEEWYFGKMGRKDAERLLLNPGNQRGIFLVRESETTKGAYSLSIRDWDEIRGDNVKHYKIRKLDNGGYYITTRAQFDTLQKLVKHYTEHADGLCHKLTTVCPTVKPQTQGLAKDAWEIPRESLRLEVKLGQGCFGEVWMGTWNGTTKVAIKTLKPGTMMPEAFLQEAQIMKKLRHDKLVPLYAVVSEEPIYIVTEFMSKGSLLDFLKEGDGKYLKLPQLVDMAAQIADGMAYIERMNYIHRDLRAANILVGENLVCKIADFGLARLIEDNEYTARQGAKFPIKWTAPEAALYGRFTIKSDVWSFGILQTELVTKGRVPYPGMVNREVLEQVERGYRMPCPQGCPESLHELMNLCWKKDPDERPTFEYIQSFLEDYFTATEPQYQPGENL
It counts as binding. The following applies: for Percent control: 10 μM.

Test [7] deals with T3, EPHB6 (Homo sapiens, UniProt O15197).
T3 sequence (O15197 32-1021): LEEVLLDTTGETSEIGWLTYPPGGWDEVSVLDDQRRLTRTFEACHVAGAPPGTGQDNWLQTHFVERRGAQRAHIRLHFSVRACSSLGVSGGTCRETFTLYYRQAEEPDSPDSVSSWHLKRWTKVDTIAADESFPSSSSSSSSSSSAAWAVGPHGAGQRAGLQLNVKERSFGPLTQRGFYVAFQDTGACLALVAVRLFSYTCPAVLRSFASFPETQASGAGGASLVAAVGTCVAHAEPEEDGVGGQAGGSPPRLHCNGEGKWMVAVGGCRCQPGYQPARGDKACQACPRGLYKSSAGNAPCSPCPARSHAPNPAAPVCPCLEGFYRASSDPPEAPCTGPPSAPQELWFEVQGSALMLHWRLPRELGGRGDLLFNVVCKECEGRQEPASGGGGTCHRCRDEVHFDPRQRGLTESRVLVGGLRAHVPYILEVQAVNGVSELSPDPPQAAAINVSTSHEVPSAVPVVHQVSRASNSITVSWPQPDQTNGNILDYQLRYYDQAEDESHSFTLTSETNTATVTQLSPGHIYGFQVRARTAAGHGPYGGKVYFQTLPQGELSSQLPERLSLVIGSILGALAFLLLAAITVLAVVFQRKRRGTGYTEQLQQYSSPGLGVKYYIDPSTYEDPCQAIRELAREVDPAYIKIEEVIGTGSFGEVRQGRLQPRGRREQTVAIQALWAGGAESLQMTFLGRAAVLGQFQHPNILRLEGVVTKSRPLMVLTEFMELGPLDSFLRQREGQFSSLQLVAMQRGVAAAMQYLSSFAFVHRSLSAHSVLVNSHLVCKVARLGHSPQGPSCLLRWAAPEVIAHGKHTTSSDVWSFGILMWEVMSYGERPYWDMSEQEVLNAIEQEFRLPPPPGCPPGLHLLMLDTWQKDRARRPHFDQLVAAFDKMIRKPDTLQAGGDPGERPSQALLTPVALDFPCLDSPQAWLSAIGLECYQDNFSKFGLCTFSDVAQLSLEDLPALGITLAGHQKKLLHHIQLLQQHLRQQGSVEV
The following applies: 10 μM.

[8] abbreviates: Homo sapiens, NCI-H292, read-out: Anticancer activity (IC50) H292.
[9] abbreviates: NSCLC, EGFR wild type, read-out: Anticancer activity (IC50) H292.

Sequence of PDGFRA (P16234 24-1089): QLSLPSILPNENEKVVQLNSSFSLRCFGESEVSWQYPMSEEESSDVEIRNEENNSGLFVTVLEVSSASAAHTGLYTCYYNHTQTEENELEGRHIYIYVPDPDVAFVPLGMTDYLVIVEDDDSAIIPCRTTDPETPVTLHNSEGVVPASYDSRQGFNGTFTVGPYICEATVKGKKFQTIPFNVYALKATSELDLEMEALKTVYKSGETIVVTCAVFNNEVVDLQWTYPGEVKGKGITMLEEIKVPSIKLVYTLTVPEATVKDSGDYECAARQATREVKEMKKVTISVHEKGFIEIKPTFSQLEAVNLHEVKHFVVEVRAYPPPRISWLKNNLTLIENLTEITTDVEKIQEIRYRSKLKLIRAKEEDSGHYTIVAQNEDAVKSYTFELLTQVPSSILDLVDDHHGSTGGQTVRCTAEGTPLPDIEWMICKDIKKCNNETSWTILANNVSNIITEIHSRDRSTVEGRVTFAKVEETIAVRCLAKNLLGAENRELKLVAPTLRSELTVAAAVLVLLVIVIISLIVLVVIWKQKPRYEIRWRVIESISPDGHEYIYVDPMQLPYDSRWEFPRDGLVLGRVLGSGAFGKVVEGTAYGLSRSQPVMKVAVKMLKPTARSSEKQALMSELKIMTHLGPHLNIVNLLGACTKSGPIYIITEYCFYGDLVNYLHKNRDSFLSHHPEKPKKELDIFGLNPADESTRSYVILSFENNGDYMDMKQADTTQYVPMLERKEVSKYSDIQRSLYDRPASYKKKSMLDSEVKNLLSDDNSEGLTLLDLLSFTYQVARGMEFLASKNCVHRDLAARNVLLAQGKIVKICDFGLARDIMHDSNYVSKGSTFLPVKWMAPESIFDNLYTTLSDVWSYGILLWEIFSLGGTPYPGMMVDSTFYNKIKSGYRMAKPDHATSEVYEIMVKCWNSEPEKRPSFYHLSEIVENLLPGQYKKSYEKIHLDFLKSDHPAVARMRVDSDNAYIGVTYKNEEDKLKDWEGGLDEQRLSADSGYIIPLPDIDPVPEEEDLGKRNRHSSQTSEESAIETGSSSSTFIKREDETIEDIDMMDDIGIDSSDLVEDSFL
Sequence of FGFR2 (P21802 22-821): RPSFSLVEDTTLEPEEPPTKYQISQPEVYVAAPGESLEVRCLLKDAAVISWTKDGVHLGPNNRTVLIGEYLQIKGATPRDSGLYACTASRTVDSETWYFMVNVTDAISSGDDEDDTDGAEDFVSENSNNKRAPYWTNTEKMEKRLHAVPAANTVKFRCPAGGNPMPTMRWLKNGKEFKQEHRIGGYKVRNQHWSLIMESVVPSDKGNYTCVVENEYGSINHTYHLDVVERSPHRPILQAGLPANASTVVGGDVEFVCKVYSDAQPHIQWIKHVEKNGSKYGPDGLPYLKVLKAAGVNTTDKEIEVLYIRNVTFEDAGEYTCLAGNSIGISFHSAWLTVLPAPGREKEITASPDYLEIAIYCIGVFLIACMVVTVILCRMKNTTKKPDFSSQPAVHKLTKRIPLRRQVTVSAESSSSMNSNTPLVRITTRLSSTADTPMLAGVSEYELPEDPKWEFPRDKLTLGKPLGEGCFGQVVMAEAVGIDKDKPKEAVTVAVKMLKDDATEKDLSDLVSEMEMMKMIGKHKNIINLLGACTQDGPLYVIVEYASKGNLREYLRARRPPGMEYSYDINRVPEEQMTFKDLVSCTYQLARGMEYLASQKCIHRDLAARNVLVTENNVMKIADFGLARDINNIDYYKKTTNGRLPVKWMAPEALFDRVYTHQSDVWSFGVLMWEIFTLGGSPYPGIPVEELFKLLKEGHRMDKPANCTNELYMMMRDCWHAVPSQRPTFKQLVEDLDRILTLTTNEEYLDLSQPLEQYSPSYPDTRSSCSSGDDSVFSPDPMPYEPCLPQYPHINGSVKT

With `C#Cc1cccc(Nc2ncnc3cc(OCCOC)c(OCCOC)cc23)c1` [Erlotinib], the IC50 – broadly, the point on the concentration scale where inhibition reaches its midpoint – in test [1] (setting [8]) amounted to 0.22 ± 0.12 µM.
As for `Cc1ccc(NC(=O)c2ccc(CN3CCN(C)CC3)cc2)cc1Nc1nccc(-c2cccnc2)[n+]1[Pt-2]1([Cl])[NH2+]C2CCCCC2[NH2+]1` (centres unmarked) [1b, oxaliplatin-imatinib], the Percent control is 78% in test [2]; 1.2% in test [3]; 100% in test [4]; 100% in test [5]; 100% in test [6]; 92% in test [7].
Consider `COc1cc2c(Nc3ccc(Br)cc3F)ncnc2cc1OCC1CCN(C)CC1` [Vandetanib, reference compound], for which the remaining binding at 10 µM in test [6] (read-out: Percent control) was determined as 1.2%. The IC50 in test [1] (setting [8]) came to 6.24 ± 0.94 µM.
Take `COc1cc2c(Nc3ccc(Br)cc3F)[n+]([Pt-2]3([Cl])[NH2+]C4CCCCC4[NH2+]3)cnc2cc1OCC1CCN(C)CC1` (centres unmarked) [3b, oxaliplatin-vandetanib]: the Percent control turned out to be 32% in test [2]; 5.7% in test [3]; 67% in test [4]; 35% in test [5]; 23% in test [6]; 2.5% in test [7]. Moreover, the IC50 in test [1] (setting [9]) came to 9.32 ± 1.01 µM.
On to `C#Cc1cccc(Nc2c3cc(OCCOC)c(OCCOC)cc3nc[n+]2[Pt@SP2-2]([NH3+])([NH3+])[Cl])c1` [2a, cisplatin-erlotinib], for which the Percent control was 72% in test [2]; 100% in test [3]; 91% in test [4]; 91% in test [5]; 100% in test [6]; 76% in test [7]. For the same compound, the IC50 in test [1] (setting [9]) turned out to be 3.27 ± 1.75 µM.
Regarding `Cc1ccc(NC(=O)c2ccc(CN3CCN(C)CC3)cc2)cc1Nc1nccc(-c2cccnc2)n1` [Imatinib, reference compound], the Percent control in test [4], in test [5] and in test [7] was 100% each time.
